Reference: US8871753B2, “Macrocyclic compounds and their use as kinase inhibitors” (Incyte Corporation, priority 2008, dated 2014)
Where a name gives a salt, the structure may show the parent alone. Read-outs that look alike come from different tables or passages of the source.

Columns and labels:
Type in all cases: biochemical
[1] = biological target: T1, human JAK1 (a.a. 837-1142) (Homo sapiens, UniProt P23458); experiment: In vitro JAK kinase assay (HTRF, phosphorylation of a biotinylated peptide), JAK1; conditions: read-out: JAK1 IC50
T1 construct: human JAK1 (a.a. 837-1142); His tag (N); made in house; host or cells: insect cells (baculovirus)
T1 sequence (P23458 849-1154): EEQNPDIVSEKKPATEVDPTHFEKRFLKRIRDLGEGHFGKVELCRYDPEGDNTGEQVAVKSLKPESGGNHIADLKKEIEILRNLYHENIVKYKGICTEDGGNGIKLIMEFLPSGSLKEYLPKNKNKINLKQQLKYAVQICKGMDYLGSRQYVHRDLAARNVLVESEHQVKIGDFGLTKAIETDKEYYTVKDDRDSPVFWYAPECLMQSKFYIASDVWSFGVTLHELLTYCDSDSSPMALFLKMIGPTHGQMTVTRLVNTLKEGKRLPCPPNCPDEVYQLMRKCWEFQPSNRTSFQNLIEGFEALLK
Summary of the method: (§1)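 Kinase activity was measured as phosphorylation of a biotinylated peptide, with ATP at 90 μM for JAK1, 30 μM for JAK2 and 3 μM for JAK3. Reactions ran 1 hr at room temperature, were stopped with EDTA plus SA-APC and Eu-Py20, and were read by HTRF after 40 minutes of antibody binding.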

[2] = biological target: TYK2 (Homo sapiens, UniProt P29597); experiment: TYK2 kinase inhibition (Table A1)
Sequence of TYK2 (P29597 whole entry): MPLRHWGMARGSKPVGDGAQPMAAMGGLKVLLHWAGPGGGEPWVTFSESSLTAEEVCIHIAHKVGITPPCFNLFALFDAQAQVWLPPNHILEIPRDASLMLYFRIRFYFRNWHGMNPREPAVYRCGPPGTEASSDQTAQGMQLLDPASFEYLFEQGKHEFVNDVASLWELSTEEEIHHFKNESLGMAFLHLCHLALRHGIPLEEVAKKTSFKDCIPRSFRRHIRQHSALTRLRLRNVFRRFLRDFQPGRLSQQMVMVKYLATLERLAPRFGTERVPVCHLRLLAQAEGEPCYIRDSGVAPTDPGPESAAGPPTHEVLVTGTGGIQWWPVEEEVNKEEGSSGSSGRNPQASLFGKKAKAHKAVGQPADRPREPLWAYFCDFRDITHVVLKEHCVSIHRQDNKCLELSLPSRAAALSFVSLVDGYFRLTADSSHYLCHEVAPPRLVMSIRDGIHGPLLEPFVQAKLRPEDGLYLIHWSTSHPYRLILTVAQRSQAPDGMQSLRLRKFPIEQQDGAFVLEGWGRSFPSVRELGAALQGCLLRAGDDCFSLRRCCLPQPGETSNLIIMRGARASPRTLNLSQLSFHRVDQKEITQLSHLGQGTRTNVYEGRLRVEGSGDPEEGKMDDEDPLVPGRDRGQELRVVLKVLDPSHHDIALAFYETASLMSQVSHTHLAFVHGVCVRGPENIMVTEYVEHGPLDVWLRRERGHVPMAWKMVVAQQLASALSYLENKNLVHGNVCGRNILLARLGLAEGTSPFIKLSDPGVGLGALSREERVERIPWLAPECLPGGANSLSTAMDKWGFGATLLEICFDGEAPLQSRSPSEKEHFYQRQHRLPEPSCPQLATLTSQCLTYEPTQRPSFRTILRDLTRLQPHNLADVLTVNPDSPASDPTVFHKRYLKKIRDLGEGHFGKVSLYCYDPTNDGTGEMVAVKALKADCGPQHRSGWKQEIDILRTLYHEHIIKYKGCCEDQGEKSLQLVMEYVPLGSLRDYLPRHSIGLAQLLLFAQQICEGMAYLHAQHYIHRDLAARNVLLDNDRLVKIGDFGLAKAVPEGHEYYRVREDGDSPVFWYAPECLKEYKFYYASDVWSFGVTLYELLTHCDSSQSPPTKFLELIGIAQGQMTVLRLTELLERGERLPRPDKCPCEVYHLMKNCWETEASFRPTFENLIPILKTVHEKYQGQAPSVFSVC

[3] = biological target: T2, human JAK2 (a.a. 828-1132) (Homo sapiens, UniProt O60674); experiment: In vitro JAK kinase assay (HTRF, phosphorylation of a biotinylated peptide), JAK2
T2 construct: JAK2 (a.a. 828-1132); His tag (N); made in house; host or cells: insect cells (baculovirus)
T2 sequence (O60674 828-1132): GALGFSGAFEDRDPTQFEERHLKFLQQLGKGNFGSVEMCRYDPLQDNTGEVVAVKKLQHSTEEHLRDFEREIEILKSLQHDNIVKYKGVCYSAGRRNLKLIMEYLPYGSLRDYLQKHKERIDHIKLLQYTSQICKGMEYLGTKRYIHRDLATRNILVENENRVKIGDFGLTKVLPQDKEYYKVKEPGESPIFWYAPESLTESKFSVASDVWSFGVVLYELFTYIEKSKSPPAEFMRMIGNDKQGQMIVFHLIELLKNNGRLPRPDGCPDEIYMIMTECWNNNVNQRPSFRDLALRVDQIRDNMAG
Summary of the method: as §1

[4] = biological target: T3, human JAK3 (a.a. 781-1124) (Homo sapiens, UniProt P52333); experiment: In vitro JAK kinase assay (HTRF, phosphorylation of a biotinylated peptide), JAK3
T3 construct: JAK3 (a.a. 781-1124); His tag (N); made in house; host or cells: insect cells (baculovirus)
T3 sequence (P52333 781-1124): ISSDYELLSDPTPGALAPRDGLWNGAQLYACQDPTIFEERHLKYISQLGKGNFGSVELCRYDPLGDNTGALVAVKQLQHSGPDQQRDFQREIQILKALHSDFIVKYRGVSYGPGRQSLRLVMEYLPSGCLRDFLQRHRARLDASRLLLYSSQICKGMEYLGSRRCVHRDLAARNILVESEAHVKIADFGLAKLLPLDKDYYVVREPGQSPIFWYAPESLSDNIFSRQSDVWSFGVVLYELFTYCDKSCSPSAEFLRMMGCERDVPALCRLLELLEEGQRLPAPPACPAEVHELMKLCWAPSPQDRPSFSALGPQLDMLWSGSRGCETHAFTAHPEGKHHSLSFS
Method: The catalytic activity of JAK1, JAK2 or JAK3 was assayed by measuring the phosphorylation of a biotinylated peptide. The phosphorylated peptide was detected by homogenous time resolved fluorescence (HTRF). […] The ATP concentration in the reactions was 90 μM for JAK1, 30 μM for JAK2 and 3 μM for JAK3. Reactions were carried out at room temperature for 1 hr and then stopped with 20 μL 45 mM EDTA, 300 nM SA-APC, 6 nM Eu-Py20 in assay buffer (Perkin Elmer, Boston, Mass.). Binding to the Europium labeled antibody took place for 40 minutes and HTRF signal was measured on a Fusion plate reader (Perkin Elmer, Boston, Mass.).
The catalytic activity of JAK1, JAK2 or JAK3 was assayed by measuring the phosphorylation of a biotinylated peptide. The phosphorylated peptide was detected by homogenous time resolved fluorescence (HTRF). […] Reactions were carried out at room temperature for 1 hr and then stopped with 20 μL 45 mM EDTA, 300 nM SA-APC, 6 nM Eu-Py20 in assay buffer (Perkin Elmer, Boston, Mass.). Binding to the Europium labeled antibody took place for 40 minutes and HTRF signal was measured on a Fusion plate reader (Perkin Elmer, Boston, Mass.).

| SMILES | IC50 ([1]; Table D1) [nM] | IC50 ([2]; Table D1) [nM] | IC50 ([3]; Table D1) [nM] | IC50 ([4]; Table D1) [nM] | IC50 [1] [nM] | IC50 [2] [nM] | IC50 [3] [nM] | IC50 [4] [nM] |
| --- | --- | --- | --- | --- | --- | --- | --- | --- |
| N#Cc1ccccc1NC(=O)N1CCC(CCOc2ccc3cc2CCc2cncc(c2)Nc2ncc(Cl)c(n2)N3)CC1 [Example D173, 4-(2-{[6-Chloro-2,4,8,18,22-pentaazatetracyclo[14.3.1.1(3,7).1(9,13)]docosa-1(20),3(22),4,6,9(21),10,12,16,18-nonaen-12-yl]oxy}ethyl)-N-(2-cyanophenyl)piperidine-1-carboxamide bis(trifluoroacetate)] | 100 | > 400 | > 400 | > 400 |  |  |  |  |
| O=C(COc1ccc2cc1CCc1cncc(c1)Nc1ncc(Cl)c(n1)N2)N1CCC(c2nc(-c3cccs3)no2)CC1 [Example D258, 6-Chloro-12-(2-oxo-2-{4-[3-(2-thienyl)-1,2,4-oxadiazol-5-yl]piperidin-1-yl}ethoxy)-2,4,8,18,22-pentaazatetracyclo[14.3.1.1(3,7).1(9,13)]docosa-1(20),3(22),4,6,9(21),10,12,16,18-nonaene bis(trifluoroacetate)] | 70 | > 400 | 113 | > 400 |  |  |  |  |
| O=C(Cc1c[nH]cn1)Nc1ccc2cc1CCc1cccc(c1)Nc1ncc(Cl)c(n1)N2 [Example C33, N-[6-Chloro-2,4,8,22-tetraazatetracyclo[14.3.1.1(3,7).1(9,13)]docosa-1(20),3(22),4,6,9(21),10,12,16,18-nonaen-12-yl]-2-(1H-imidazol-4-yl)acetamide bis(trifluoroacetate)] |  |  |  |  | 17 | 217 | 35 | 733 |
| O=C(Cc1noc2ccccc12)Nc1ccc2cc1CCc1cccc(c1)Nc1ncc(Cl)c(n1)N2 [Example C45, 2-(1,2-Benzisoxazol-3-yl)-N-[6-chloro-2,4,8,22-tetraazatetracyclo[14.3.1.1(3,7).1(9,13)]docosa-1(20),3(22),4,6,9(21),10,12,16,18-nonaen-12-yl]acetamide trifluoroacetate] |  |  |  |  | 165 | 544 | 321 | > 10000 |
| Cn1cc(C(=O)N2CC(CC(=O)Nc3ccc4cc3CCc3cncc(c3)Nc3ncc(Cl)c(n3)N4)C2)cn1 [Example D142, N-[6-Chloro-2,4,8,18,22-pentaazatetracyclo[14.3.1.1(3,7).1(9,13)]docosa-1(20),3(22),4,6,9(21),10,12,16,18-nonaen-12-yl]-2-{1-[(1-methyl-1H-pyrazol-4-yl)carbonyl]azetidin-3-yl}acetamide bis(trifluoroacetate)] | 37 | 193 | 144 | > 1000 |  |  |  |  |
| O=C(CC1CN(C(=O)c2nccs2)C1)Nc1ccc2cc1CCc1cncc(c1)Nc1ncc(Cl)c(n1)N2 [Example D145, N-[6-Chloro-2,4,8,18,22-pentaazatetracyclo[14.3.1.1(3,7).1(9,13)]docosa-1(20),3(22),4,6,9(21),10,12,16,18-nonaen-12-yl]-2-[1-(1,3-thiazol-2-ylcarbonyl)azetidin-3-yl]acetamide bis(trifluoroacetate)] | 31 | 775 | 123 | > 1000 |  |  |  |  |
| Cc1cnc2nc1Nc1ccc(NC(=O)CC3CCN(c4nncs4)CC3)c(c1)CCc1cccc(c1)N2 [Example C53, N-[6-Methyl-2,4,8,22-tetraazatetracyclo[14.3.1.1(3,7).1(9,13)]docosa-1(20),3(22),4,6,9(21),10,12,16,18-nonaen-12-yl]-2-[1-(1,3,4-thiadiazol-2-yl)piperidin-4-yl]acetamide trifluoroacetate] |  |  |  |  | 39 | 199 | > 200 | > 200 |

More lines, in order of falling IC50 ([1]; Table D1), values ahead:

| IC50 ([1]; Table D1) [nM] | IC50 ([2]; Table D1) [nM] | IC50 ([3]; Table D1) [nM] | IC50 ([4]; Table D1) [nM] | IC50 [1] [nM] | IC50 [2] [nM] | IC50 [3] [nM] | IC50 [4] [nM] | SMILES |
| --- | --- | --- | --- | --- | --- | --- | --- | --- |
| 41 | > 400 | 180 | > 400 |  |  |  |  | COc1ccccc1N1CCN(C(=O)COc2ccc3cc2CCc2cncc(c2)Nc2ncc(Cl)c(n2)N3)CC1 [Example D241, 6-Chloro-12-{2-[4-(2-methoxyphenyl)piperazin-1-yl]-2-oxoethoxy}-2,4,8,18,22-pentaazatetracyclo[14.3.1.1(3,7).1(9,13)]docosa-1(20),3(22),4,6,9(21),10,12,16,18-nonaene tris(trifluoroacetate)] |
| 29 | > 400 | 180 | > 400 |  |  |  |  | Cc1ccnc(N2CCN(C(=O)COc3ccc4cc3CCc3cncc(c3)Nc3ncc(Cl)c(n3)N4)CC2)c1 [Example D237, 6-Chloro-12-{2-[4-(4-methylpyridin-2-yl)piperazin-1-yl]-2-oxoethoxy}-2,4,8,18,22-pentaazatetracyclo[14.3.1.1(3,7).1(9,13)]docosa-1(20),3(22),4,6,9(21),10,12,16,18-nonaene tris(trifluoroacetate)] |
| 23 | 300 | 276 | > 400 |  |  |  |  | Clc1cnc2nc1Nc1ccc(NCCC3CCNCC3)c(c1)CCc1cncc(c1)N2 [Example D216, 6-Chloro-N-(2-piperidin-4-ylethyl)-2,4,8,18,22-pentaazatetracyclo[14.3.1.1(3,7).1(9,13)]docosa-1(20),3(22),4,6,9(21),10,12,16,18-nonaen-12-amine tetrakis(trifluoroacetate)] |
| 14 | 38 | 40 | > 400 |  |  |  |  | O=C(c1ccc(F)cc1F)N1CCC(CCNc2ccc3cc2CCc2cncc(c2)Nc2ncc(Cl)c(n2)N3)CC1 [Example D220, 6-Chloro-N-{2-[1-(2,4-difluorobenzoyl)piperidin-4-yl]ethyl}-2,4,8,18,22-pentaazatetracyclo[14.3.1.1(3,7).1(9,13)]docosa-1(20),3(22),4,6,9(21),10,12,16,18-nonaen-12-amine tris(trifluoroacetate)] |
| 8.1 | 12 | 9.3 | 34 |  |  |  |  | CC(=O)N1CCC[C@@H](CC(=O)Nc2ccc3cc2CCc2cccc(c2)Nc2ncc(Cl)c(n2)N3)C1 [Example D200, 2-[(3S)-1-Acetylpiperidin-3-yl]-N-[6-chloro-2,4,8,22-tetraazatetracyclo[14.3.1.1(3,7).1(9,13)]docosa-1(20),3(22),4,6,9(21),10,12,16,18-nonaen-12-yl]acetamide trifluoroacetate] |
| 1.6 | 66 | 15 | > 1000 |  |  |  |  | O=C(C[C@@H]1CCN(c2nc3ccccc3s2)C1)Nc1ccc2cc1CCc1cncc(c1)Nc1ncc(Cl)c(n1)N2 [Example D137, 2-[(3S)-1-(1,3-Benzothiazol-2-yl)pyrrolidin-3-yl]-N-[6-chloro-2,4,8,18,22-pentaazatetracyclo[14.3.1.1(3,7).1(9,13)]docosa-1(20),3(22),4,6,9(21),10,12,16,18-nonaen-12-yl]acetamide tris(trifluoroacetate)] |
| 0.9 | 1.8 | 2.8 | 21 |  |  |  |  | O=c1[nH]c2cc3cc(c2o1)CCc1cccc(c1)Nc1ncc(Cl)c(n1)N3 [Example D184, 4-Chloro-18-oxa-2,6,8,20,25-pentaazapentacyclo[14.6.1.1(3,7).1(9,13).0(17,21)]pentacosa-1(23),3(25),4,6,9(24),10,12,16,21-nonaen-19-one] |
